Experimental findings from patent US20130252917A1, “COMBINATION THERAPY OF 4-(3-(2H-1,2,3-TRIAZO-2-YL)PHENYLAMINO)-2-((1R,2S)-2-AMINOCYCLOHEXYLAMINO)PYRIMIDINE-5-CARBOXAMIDE AND FLUDARABINE” (priority 2010, published 2013) are described below.

pIC50: −log10 of the molar value. Read-outs that look alike come from different tables or passages of the source.

This test has as its system primary CLL cells. Put plainly: tetrazolium-based cell viability assay (MTS) on primary CLL cells, Compound 1 with or without fludarabine. Also noted: species or system human. The following applies: for pIC50: Homo sapiens, CLL cell. The method, then: Fresh primary CLL cells from 42 CLL patients were purified using a Ficoll gradient. Purified cells were then added to wells (5×10^4 per well) containing 10% serum serum containing media and four serial dilutions of Compound 1 (ranging from 10 nM to 10 μM) with or without different concentrations of fludarabine (also ranging from 10 nM to 10 μM). […] The viability data were normalized to untreated controls and were used to calculate IC50 values. […] Comput. Biomed. Res. 199, 32(2): 145-160).

`NC(=O)c1cnc(N[C@@H]2CCCC[C@@H]2N)nc1Nc1cccc(-n2nccn2)c1` [Compound 1, 4-(3-(2H-1,2,3-triazol-2-yl)phenylamino)-2-((1R,2S)-2-aminocyclohexylamino)pyrimidine-5-carboxamide]: the pIC50 reads like this: (read-out: median IC50 (cell viability)) 6.40; (three of seven samples with the 17p deletion that had significant activity, read-out: IC50 (cell viability)) 7.43. The cell viability result (samples from relapsed patients and with poor risk features (ZAP70 and/or CD38 expression, 11q deletion, unmutated IgVh)) is on record as “significant decreases in cell viability”.
